What was measured:
BaF3 ETV6-NTRK3-G623R = target: T1, BaF3 ETV6-NTRK3-G623R (Homo sapiens, UniProt Q16288, G623R, cells depend on it); assay: Inhibitory activity against cell proliferation (CellTiter-Glo, 72 hours); assay type: cell-based; conditions: read-out: Half maximal inhibitory concentration IC50 of cells, BaF3 ETV6-NTRK3-G623R
T1 construct: fused on or other part: N-terminal part of ETV6 (TEL) as fusion partner (part of the key); P41212 (Transcription factor ETV6)
Description: (§1) Adenosine Triphosphate (ATP) is an energy carrier commonly used in various life activities in nature, and is the minimum unit for energy storage and transfer. The CellTiter-Glo™ cell viability assay kit uses luciferase as an assay agent, which requires the involvement of ATP in luminescence. The CellTiter-Glo™ reagent is added into cell culture medium to measure the luminescence value. The luminescence signal is directly proportional to the amount of ATP in the system, and the ATP is positively correlated with the number of viable cells. Therefore, the proliferation of cells can be detected by detecting the ATP content using the CellTiter-Glo kit. In this test, the cell lines used are Ba/F3 LMNA-NTRK1-WT, Ba/F3 LMNA-NTRK1-F589L, BaF3 LMNA-NTRK1-G595R, BaF3 LMNA-NTRK1-G667A, BaF3 ETV6-NTRK3-WT, BaF3 ETV6-NTRK3-G623R, and Ba/F3 SLC34A2-ROS1-WT stable cell strains, 5000 cells/well.
(§2) a) Cells in the logarithmic growth phase were collected and counted using a […]. The cell viability was detected by the trypan blue exclusion method, and the cell viability was kept over 90%.
(§3) b) The cell concentration was adjusted; 90 μL of the cell suspension was added to a 96-well plate.
c) Cells in the 96-well plate were incubated overnight at 37° C. with 5% CO2 and 95% humidity.
(§4) a) A 10-fold compound solution was prepared, with the highest concentration being 10 μM (a total of 9 concentrations, 3-fold dilution). 10 μL of compound solution was added to each well of a 96-well plate inoculated with cells, and three duplicate wells were set for each compound concentration.
b) The cells in the 96-well plate added with compound were incubated for 72 hours at 37° C. with 5% CO2 and 95% humidity, followed by the CTG (CellTiter-Glo) analysis.
(§5) a) The CTG reagent was thawed and the cell plate was equilibrated to room temperature for 30 minutes.
(§6) b) An equal volume of CTG solution was added to each well.
(§7) c) The plate was shaken on an orbital shaker for 5 minutes to lyse the cells.
(§8) d) The cell plate was placed at room temperature for 20 minutes to stabilize the luminescence signal.
(§9) e) The luminescence value was read.
(§10) The data were analyzed using GraphPad Prism 5.0 software, fitted with nonlinear S-curve regression to give dose-response curves, and IC50 values were calculated therefrom.

[1] = Pharmacokinetic test of compounds in rats (plasma, LC/MS/MS); assay type: in vivo, male SD rats; conditions: for Cmax: read-out: Peak concentration Cmax
Description: Experimental purpose: male SD rats aged 7-9 weeks were selected as test animals, and the drug concentrations of the compounds in plasma at different time points after single intravenous injection (IV) and intragastric administration (PO) of the compounds were measured by an LC/MS/MS method, so that the pharmacokinetic behavior of the compounds disclosed herein in rats was studied, and the pharmacokinetic characteristic of the compounds was evaluated.
Drug preparation: the compounds were all prepared into clear solution by taking 5% DMSO+10% solutol+85% water as vehicle, and were used for administration in IV and PO groups. The dose of each compound administered was: IV, 3 mg/kg; PO, 10 mg/kg.

Ros1 = target: T2, Ros1 (Homo sapiens, UniProt P08922); assay: Kinase inhibitory activity (33P-ATP, filtration-binding method, Reaction Biology Corp.); assay type: biochemical; conditions: read-out: Half maximal inhibitory concentration IC50 for kinases, Ros1
T2 construct: purchased Reaction Biology Corp
Description: (§11) The mixture was incubated at room temperature for 20 minutes, added with ^33P-ATP at a certain concentration to start the reaction, and then incubated at room temperature for 120 minutes. Finally, the radioactivity of the reactant was detected by the filtration-binding method. The final kinase activity was expressed as the ratio of the remaining kinase activity in the test sample to the kinase activity of the DMSO control. The dose-response curves were fitted and IC50 values were calculated by GraphPad software.

ALK = target: T3, ALK (Homo sapiens, UniProt Q9UM73); assay: as above; assay type: biochemical; conditions: read-out: Half maximal inhibitory concentration IC50 for kinases, ALK
T3 construct: purchased Reaction Biology Corp
Description: as §11

TrkA = target: T4, TrkA (Homo sapiens, UniProt P04629); assay: as above; assay type: biochemical; conditions: read-out: Half maximal inhibitory concentration IC50 for kinases, TrkA
T4 construct: purchased Reaction Biology Corp
Description: as §11

TrkC = target: T5, TrkC (Homo sapiens, UniProt Q16288); assay: as above; assay type: biochemical; conditions: read-out: Half maximal inhibitory concentration IC50 for kinases, TrkC
T5 construct: purchased Reaction Biology Corp
Description: as §11

TrkA-G667C = target: T6, TrkA-G667C (Homo sapiens, UniProt P04629, G667C); assay: as above; assay type: biochemical; conditions: read-out: Half maximal inhibitory concentration IC50 for kinases, TrkA-G667C
T6 construct: purchased Reaction Biology Corp
Description: as §11

TrkA-G595R = target: T7, TrkA-G595R (Homo sapiens, UniProt P04629, G595R); assay: as above; assay type: biochemical; conditions: read-out: Half maximal inhibitory concentration IC50 for kinases, TrkA-G595R
T7 construct: purchased Reaction Biology Corp
Description: as §11

BaF3 ETV6-NTRK3-WT = target: T8, BaF3 ETV6-NTRK3-WT (Homo sapiens, UniProt Q16288); assay: Inhibitory activity against cell proliferation (CellTiter-Glo, 72 hours); assay type: cell-based; conditions: read-out: Half maximal inhibitory concentration IC50 of cells, BaF3 ETV6-NTRK3-WT
T8 construct: fused on or other part: N-terminal part of ETV6 (TEL) as fusion partner (part of the key); P41212 (Transcription factor ETV6)
Description: as §1, with “kit.” for “kit. In this test, the cell lines used are Ba/F3 LMNA-NTRK1-WT, Ba/F3 LMNA-NTRK1-F589L, BaF3 LMNA-NTRK1-G595R, BaF3 LMNA-NTRK1-G667A, BaF3 ETV6-NTRK3-WT, BaF3 ETV6-NTRK3-G623R, and Ba/F3 SLC34A2-ROS1-WT stable cell strains, 5000 cells/well.”
as §2, §3, §4, §5, §6, §7, §8, §9, §10

BaF3 LMNA-NTRK1-G595R = target: T9, BaF3 LMNA-NTRK1-G595R (Homo sapiens, UniProt P04629, G595R, cells depend on it); assay: as above; assay type: cell-based; conditions: read-out: Half maximal inhibitory concentration IC50 of cells, BaF3 LMNA-NTRK1-G595R
T9 construct: fused on or other part: N-terminal part of LMNA as fusion partner (part of the key); P02545 (Prelamin-A/C)
Description: as §1, with “kit.” for “kit. In this test, the cell lines used are Ba/F3 LMNA-NTRK1-WT, Ba/F3 LMNA-NTRK1-F589L, BaF3 LMNA-NTRK1-G595R, BaF3 LMNA-NTRK1-G667A, BaF3 ETV6-NTRK3-WT, BaF3 ETV6-NTRK3-G623R, and Ba/F3 SLC34A2-ROS1-WT stable cell strains, 5000 cells/well.”
as §2, §3, §4, §5, §6, §7, §8, §9, §10

Ba/F3 LMNA-NTRK1-F589L = target: T10, Ba/F3 LMNA-NTRK1-F589L (Homo sapiens, UniProt P04629, F589L, cells depend on it); assay: as above; assay type: cell-based; conditions: read-out: Half maximal inhibitory concentration IC50 of cells, Ba/F3 LMNA-NTRK1-F589L
T10 construct: fused on or other part: N-terminal part of LMNA as fusion partner (part of the key); P02545 (Prelamin-A/C)
Description: as §1, with “kit.” for “kit. In this test, the cell lines used are Ba/F3 LMNA-NTRK1-WT, Ba/F3 LMNA-NTRK1-F589L, BaF3 LMNA-NTRK1-G595R, BaF3 LMNA-NTRK1-G667A, BaF3 ETV6-NTRK3-WT, BaF3 ETV6-NTRK3-G623R, and Ba/F3 SLC34A2-ROS1-WT stable cell strains, 5000 cells/well.”
as §2, §3, §4, §5, §6, §7, §8, §9, §10

Ba/F3 LMNA-NTRK1-WT = target: T11, Ba/F3 LMNA-NTRK1-WT (Homo sapiens, UniProt P04629); assay: as above; assay type: cell-based; conditions: read-out: Half maximal inhibitory concentration IC50 of cells, Ba/F3 LMNA-NTRK1-WT
T11 construct: fused on or other part: N-terminal part of LMNA as fusion partner (part of the key); P02545 (Prelamin-A/C)
Description: as §1, with “kit.” for “kit. In this test, the cell lines used are Ba/F3 LMNA-NTRK1-WT, Ba/F3 LMNA-NTRK1-F589L, BaF3 LMNA-NTRK1-G595R, BaF3 LMNA-NTRK1-G667A, BaF3 ETV6-NTRK3-WT, BaF3 ETV6-NTRK3-G623R, and Ba/F3 SLC34A2-ROS1-WT stable cell strains, 5000 cells/well.”
as §2, §3, §4, §5, §6, §7, §8, §9, §10

BaF3 LMNA-NTRK1-G667A = target: T12, BaF3 LMNA-NTRK1-G667A (Homo sapiens, UniProt P04629, G667A, cells depend on it); assay: as above; assay type: cell-based; conditions: read-out: Half maximal inhibitory concentration IC50 of cells, BaF3 LMNA-NTRK1-G667A
T12 construct: fused on or other part: N-terminal part of LMNA as fusion partner (part of the key); P02545 (Prelamin-A/C)
Description: as §1, with “kit.” for “kit. In this test, the cell lines used are Ba/F3 LMNA-NTRK1-WT, Ba/F3 LMNA-NTRK1-F589L, BaF3 LMNA-NTRK1-G595R, BaF3 LMNA-NTRK1-G667A, BaF3 ETV6-NTRK3-WT, BaF3 ETV6-NTRK3-G623R, and Ba/F3 SLC34A2-ROS1-WT stable cell strains, 5000 cells/well.”
as §2, §3, §4, §5, §6, §7, §8, §9, §10

Ba/F3 SLC34A2-ROS1-WT = target: T13, Ba/F3 SLC34A2-ROS1-WT (Homo sapiens, UniProt P08922); assay: as above; assay type: cell-based; conditions: read-out: Half maximal inhibitory concentration IC50 of cells, Ba/F3 SLC34A2-ROS1-WT
T13 construct: fused on or other part: N-terminal part of SLC34A2 as fusion partner (part of the key); O95436 (Sodium-dependent phosphate transport protein 2B)
Description: as §1, with “kit.” for “kit. In this test, the cell lines used are Ba/F3 LMNA-NTRK1-WT, Ba/F3 LMNA-NTRK1-F589L, BaF3 LMNA-NTRK1-G595R, BaF3 LMNA-NTRK1-G667A, BaF3 ETV6-NTRK3-WT, BaF3 ETV6-NTRK3-G623R, and Ba/F3 SLC34A2-ROS1-WT stable cell strains, 5000 cells/well.”
as §2, §3, §4, §5, §6, §7, §8, §9, §10

T6 sequence (P04629 33-796 G667C): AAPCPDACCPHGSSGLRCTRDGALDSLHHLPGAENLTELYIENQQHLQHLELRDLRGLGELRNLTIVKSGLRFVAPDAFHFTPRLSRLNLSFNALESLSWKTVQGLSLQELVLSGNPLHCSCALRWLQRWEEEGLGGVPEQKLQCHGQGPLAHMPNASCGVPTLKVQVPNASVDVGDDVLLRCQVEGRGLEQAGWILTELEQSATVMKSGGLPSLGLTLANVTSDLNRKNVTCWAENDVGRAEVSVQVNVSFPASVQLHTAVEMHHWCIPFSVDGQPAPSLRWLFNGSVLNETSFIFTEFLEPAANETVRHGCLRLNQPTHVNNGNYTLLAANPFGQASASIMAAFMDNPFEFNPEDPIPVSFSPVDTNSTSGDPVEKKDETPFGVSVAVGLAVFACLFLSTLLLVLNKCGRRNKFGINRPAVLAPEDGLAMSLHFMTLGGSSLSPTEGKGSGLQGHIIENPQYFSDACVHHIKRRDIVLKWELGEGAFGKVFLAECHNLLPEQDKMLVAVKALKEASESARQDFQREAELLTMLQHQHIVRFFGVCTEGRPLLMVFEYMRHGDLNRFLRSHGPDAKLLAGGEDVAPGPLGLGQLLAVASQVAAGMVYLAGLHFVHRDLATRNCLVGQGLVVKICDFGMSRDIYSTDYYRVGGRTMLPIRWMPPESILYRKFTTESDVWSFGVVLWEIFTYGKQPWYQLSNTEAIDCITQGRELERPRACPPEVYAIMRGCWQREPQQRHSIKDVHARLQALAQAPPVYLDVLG
T10 sequence (P04629 whole entry F589L, the tested form may be a part): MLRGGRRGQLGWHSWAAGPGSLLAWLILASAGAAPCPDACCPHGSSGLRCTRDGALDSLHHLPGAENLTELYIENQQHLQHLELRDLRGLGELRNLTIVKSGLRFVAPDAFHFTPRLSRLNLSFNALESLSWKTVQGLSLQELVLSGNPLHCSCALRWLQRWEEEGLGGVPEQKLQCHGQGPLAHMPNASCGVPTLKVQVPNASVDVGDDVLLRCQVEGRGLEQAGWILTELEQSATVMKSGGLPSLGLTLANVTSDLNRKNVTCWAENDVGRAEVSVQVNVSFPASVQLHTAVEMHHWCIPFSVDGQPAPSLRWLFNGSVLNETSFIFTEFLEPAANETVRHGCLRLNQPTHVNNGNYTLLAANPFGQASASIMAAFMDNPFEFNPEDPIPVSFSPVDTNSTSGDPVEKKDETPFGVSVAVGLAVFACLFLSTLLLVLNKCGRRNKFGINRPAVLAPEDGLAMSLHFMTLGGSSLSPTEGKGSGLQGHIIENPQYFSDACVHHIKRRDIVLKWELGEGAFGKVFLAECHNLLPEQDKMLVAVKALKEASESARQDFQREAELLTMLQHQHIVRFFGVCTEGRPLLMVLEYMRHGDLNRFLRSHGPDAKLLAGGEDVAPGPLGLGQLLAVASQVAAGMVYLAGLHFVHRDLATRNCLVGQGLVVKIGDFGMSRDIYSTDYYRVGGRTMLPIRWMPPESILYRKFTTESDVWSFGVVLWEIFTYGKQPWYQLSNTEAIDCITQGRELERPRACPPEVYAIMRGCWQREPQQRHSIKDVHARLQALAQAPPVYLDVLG
T3 sequence (Q9UM73 19-1620): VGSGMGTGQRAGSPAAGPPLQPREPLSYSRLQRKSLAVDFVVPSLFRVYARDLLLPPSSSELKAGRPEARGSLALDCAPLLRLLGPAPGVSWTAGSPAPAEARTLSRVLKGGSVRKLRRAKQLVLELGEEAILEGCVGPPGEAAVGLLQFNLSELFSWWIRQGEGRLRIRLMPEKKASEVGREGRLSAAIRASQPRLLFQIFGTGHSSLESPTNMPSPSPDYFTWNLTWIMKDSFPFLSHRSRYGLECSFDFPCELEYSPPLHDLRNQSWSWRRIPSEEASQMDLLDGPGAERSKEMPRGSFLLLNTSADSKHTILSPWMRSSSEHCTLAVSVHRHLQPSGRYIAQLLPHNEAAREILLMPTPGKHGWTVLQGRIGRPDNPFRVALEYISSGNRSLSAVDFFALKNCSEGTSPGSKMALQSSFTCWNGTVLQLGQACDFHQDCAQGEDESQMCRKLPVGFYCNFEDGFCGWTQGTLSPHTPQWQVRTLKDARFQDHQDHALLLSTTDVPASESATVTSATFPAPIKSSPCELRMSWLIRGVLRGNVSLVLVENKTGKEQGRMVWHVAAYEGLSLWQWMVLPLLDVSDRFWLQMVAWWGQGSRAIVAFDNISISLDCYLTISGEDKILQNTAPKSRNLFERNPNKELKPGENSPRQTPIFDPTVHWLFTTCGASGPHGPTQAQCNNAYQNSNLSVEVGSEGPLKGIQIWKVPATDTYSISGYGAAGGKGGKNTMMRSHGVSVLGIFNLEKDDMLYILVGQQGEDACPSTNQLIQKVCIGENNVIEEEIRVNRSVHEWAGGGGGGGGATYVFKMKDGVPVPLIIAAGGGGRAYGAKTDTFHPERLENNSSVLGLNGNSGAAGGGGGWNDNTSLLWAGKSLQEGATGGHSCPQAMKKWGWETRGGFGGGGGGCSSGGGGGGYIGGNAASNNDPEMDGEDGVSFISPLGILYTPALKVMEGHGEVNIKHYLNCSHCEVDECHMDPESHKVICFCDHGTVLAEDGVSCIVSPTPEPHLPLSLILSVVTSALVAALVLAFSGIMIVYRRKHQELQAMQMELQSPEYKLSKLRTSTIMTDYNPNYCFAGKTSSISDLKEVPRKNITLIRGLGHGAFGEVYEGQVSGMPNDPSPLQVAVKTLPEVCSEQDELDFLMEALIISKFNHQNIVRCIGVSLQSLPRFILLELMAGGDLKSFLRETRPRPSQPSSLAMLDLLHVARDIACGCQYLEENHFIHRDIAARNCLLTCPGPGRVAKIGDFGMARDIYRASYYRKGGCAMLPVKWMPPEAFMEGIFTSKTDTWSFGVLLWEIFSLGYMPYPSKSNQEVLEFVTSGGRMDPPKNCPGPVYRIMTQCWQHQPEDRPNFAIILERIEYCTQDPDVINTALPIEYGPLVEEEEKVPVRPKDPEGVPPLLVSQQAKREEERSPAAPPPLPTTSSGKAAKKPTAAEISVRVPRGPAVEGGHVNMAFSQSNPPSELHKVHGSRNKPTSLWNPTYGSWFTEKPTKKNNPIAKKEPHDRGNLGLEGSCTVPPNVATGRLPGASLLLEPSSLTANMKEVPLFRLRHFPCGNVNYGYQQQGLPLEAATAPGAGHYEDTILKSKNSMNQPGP
T1 sequence (Q16288 whole entry G623R, the tested form may be a part): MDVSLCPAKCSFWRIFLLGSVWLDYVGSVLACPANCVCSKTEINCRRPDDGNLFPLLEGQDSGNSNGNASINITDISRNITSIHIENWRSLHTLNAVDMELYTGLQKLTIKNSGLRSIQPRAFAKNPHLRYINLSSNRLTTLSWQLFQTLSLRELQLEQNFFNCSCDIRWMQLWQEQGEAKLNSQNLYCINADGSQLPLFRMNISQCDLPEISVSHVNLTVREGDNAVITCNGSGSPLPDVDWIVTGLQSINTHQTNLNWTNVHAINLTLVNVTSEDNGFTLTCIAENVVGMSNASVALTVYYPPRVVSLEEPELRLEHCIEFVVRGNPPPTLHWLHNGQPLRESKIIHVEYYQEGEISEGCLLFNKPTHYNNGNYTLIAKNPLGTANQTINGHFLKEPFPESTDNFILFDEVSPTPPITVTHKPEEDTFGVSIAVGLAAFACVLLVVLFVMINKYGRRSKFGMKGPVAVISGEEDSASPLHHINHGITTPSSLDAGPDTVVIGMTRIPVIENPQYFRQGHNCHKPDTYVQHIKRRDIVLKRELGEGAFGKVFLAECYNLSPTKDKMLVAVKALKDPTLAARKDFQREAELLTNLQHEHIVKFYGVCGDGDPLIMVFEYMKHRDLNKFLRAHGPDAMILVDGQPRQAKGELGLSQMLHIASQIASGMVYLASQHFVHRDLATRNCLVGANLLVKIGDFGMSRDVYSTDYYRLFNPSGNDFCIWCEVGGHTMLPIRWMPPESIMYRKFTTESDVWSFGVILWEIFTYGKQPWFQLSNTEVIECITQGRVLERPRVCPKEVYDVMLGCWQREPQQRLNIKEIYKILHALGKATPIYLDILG
T12 sequence (P04629 whole entry G667A, the tested form may be a part): as the sequence (P04629 whole entry F589L, the tested form may be a part) above, with L589F, G667A counted along it

Compound | GI50 (BaF3 ETV6-NTRK3-G623R) [nM] | Apparent clearance Cl ([1]; IV, 3 mg/kg) [mL/kg/min] | Apparent volume of distribution Vd ([1]; IV, 3 mg/kg) [L/kg] | Area under the curve AUC0-last ([1]; IV, 3 mg/kg) [µM·h] | Half-life T1/2 ([1]; IV, 3 mg/kg) [min] | Area under the curve AUC0-last ([1]; PO, 10 mg/kg) [µM·h] | Bioavailability F % ([1]; PO, 10 mg/kg) [%] | Time to peak Tmax ([1]; PO, 10 mg/kg) [min] | IC50 (Ros1) [nM] | IC50 (ALK) [nM] | IC50 (TrkA) [nM] | IC50 (TrkC) [nM] | IC50 (TrkA-G667C) [nM] | IC50 (TrkA-G595R) [nM] | GI50 (BaF3 ETV6-NTRK3-WT) [nM] | GI50 (BaF3 LMNA-NTRK1-G595R) [nM] | GI50 (Ba/F3 LMNA-NTRK1-F589L) [nM] | GI50 (Ba/F3 LMNA-NTRK1-WT) [nM] | GI50 (BaF3 LMNA-NTRK1-G667A) [nM] | GI50 (Ba/F3 SLC34A2-ROS1-WT) [nM] | further results
C[C@@H]1COc2ncc(F)cc2[C@H]2COC[C@@H](C)N2c2ccn3ncc(c3n2)C(=O)N1 [WX006] | 14.2 | 32.9 | 1.3 | 3.818 | 36 | 6.637 | 53 | 30 | 4.8 | > 1000 | 0.7 | 0.1 | 0.1 | 0.3 | 3.2 | 8.4 | 189 | 1.5 | 2 | 900 | Cmax ([1]; PO, 10 mg/kg): 3750 nM
C[C@@H]1COC[C@@H]2c3cc(F)cnc3OCC3(CC3)NC(=O)c3cnn4ccc(nc34)N12 [WX007] | 13.1 |  |  |  |  |  |  |  | 2.2 | 901 | 0.6 | 0.1 | 0.1 | 0.2 | 4.1 | 6.4 | 100 | 0.9 | 1.2 | 770 | 
C[C@@H]1COC[C@@H]2c3cc(F)cnc3O[C@@H](C)CNC(=O)c3cnn4ccc(nc34)N12 [WX008] | 8.6 | 44.0 | 1.4 | 2.748 | 30 | 2.282 | 25 | 30 | 12.8 | > 1000 | 0.7 | 0.1 | 0.1 | 0.2 | 1.8 | 5 | 204 | 1.6 | 2 | > 1000 | Cmax ([1]; PO, 10 mg/kg): 1130 nM
O=C1NC2(CC2)COc2ncc(F)cc2[C@H]2CCOCCN2c2ccn3ncc1c3n2 [WX009A] | 12.9 | 19.0 | 1.3 | 6.19 | 54 | 9.696 | 49 | 78 | 0.1 | 51.3 | 1.8 | 0.1 | 2.9 | 0.9 | 2.2 | 7.4 | 15.8 | 1 | 7.3 | 50 | Cmax ([1]; PO, 10 mg/kg): 2630 nM
